# Test results as given in patent US20230114728A1 (Venatorx Pharmaceuticals, Inc., priority 2019, published 2023).
# Legend:
# Assay in all cases: Broth microdilution MIC in CAMHB
# Type in all cases: cell-based
# [1] = tested on: K. pneumoniae SI-117 producing VIM-1; settings: Klebsiella pneumoniae, read-out: Minimum Inhibitory Concentration, K. pneumoniae SI-117
# Summary of the method: (§1)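 Lowest compound concentration with no visible growth after 16-20 h at 37 °C defines MIC. Plates of 2-fold serial dilutions in cation-adjusted Mueller Hinton broth received 2-8×10^5 CFU/mL of exponentially grown cells, per CLSI methods; panel spans reference, hyper-permeable and efflux-pump-deleted strains.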
# E. coli 901C = settings: Escherichia coli; E. coli 901C (hyper-permeable); MHB; read-out: Minimum Inhibitory Concentration, E. coli 901C
# Summary of the method: as §1
# [2] = tested on: P. aeruginosa (ΔmexAB-oprM); settings: Pseudomonas aeruginosa, read-out: Minimum Inhibitory Concentration, P. aeruginosa ΔmexAB-OprM
# Summary of the method: as §1
# E. coli D22 = settings: Escherichia coli; E. coli D22 (hyper-permeable); MHB; read-out: Minimum Inhibitory Concentration, E. coli D22
# Summary of the method: as §1
# [3] = tested on: K. pneumoniae UMM producing SHV-5 and KPC-2; settings: Klebsiella pneumoniae, read-out: Minimum Inhibitory Concentration, K. pneumoniae UMM
# Summary of the method: as §1
# E. coli AG100 = settings: Escherichia coli; E. coli AG100 (wild-type parent); MHB; read-out: Minimum Inhibitory Concentration, E. coli AG100
# Summary of the method: as §1
# A. baumannii ATCC 19606 = settings: Acinetobacter baumannii, ATCC19606; MHB; read-out: Minimum Inhibitory Concentration, A. baumannii ATCC 19606
# Summary of the method: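 Hyper-permeable or efflux-deficient strains serve to probe outer-membrane penetration. Growth inhibition is scored visually after 16-20 h at 37° C in CAMHB, starting from 2-8×10^5 CFU/mL.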
# E. coli AG100A = settings: Escherichia coli, read-out: Minimum Inhibitory Concentration, E. coli AG100A
# Summary of the method: as §1
# P. aeruginosa ATCC 35151 = settings: Pseudomonas aeruginosa, ATCC35151; MHB; hyper-permeable strain; read-out: Minimum Inhibitory Concentration, P. aeruginosa ATCC 35151
# Summary of the method: as §1
# [4] = tested on: K. pneumoniae 848844 producing SHV-11 and KPC-2; settings: Klebsiella pneumoniae, read-out: Minimum Inhibitory Concentration, K. pneumoniae 848844
# Summary of the method: as §1
# P. aeruginosa ATCC 27853 = settings: Pseudomonas aeruginosa, ATCC27853; MHB; read-out: Minimum Inhibitory Concentration, P. aeruginosa ATCC 27853
# Summary of the method: as §1
# E. coli ATCC 25922 = settings: Escherichia coli, ATCC25922; E. coli ATCC 25922; MHB; read-out: Minimum Inhibitory Concentration, E. coli 25922
# Summary of the method: as §1
Structure (SMILES),MIC [1] [µg/mL],MIC (E. coli 901C) [µg/mL],MIC [2] [µg/mL],MIC (E. coli D22) [µg/mL],MIC [3] [µg/mL],MIC (E. coli AG100) [µg/mL],MIC (A. baumannii ATCC 19606) [µg/mL],MIC (E. coli AG100A) [µg/mL],MIC (P. aeruginosa ATCC 35151) [µg/mL],MIC [4] [µg/mL],MIC (P. aeruginosa ATCC 27853) [µg/mL],MIC (E. coli ATCC 25922) [µg/mL]
"CCN1CCN(C(=O)NC(C(=O)N[C@H]2Cc3cccc(C(=O)O)c3OB2O)c2c(Cl)cc(C(=O)O)cc2Cl)C(=O)C1=O (stereo partly drawn) [Example 150, (3R)-3-(2-(4-carboxy-2,6-dichlorophenyl)-2-(4-ethyl-2,3-dioxopiperazine-1-carboxamido)acetamido)-2-hydroxy-3,4-dihydro-2H-benzo[e][1,2]oxaborinine-8-carboxylic acid]",> 128,< 0.25,> 128,2 to 4,> 128,> 128,> 128,32 to 64,0.5 to 1,> 128,> 128,> 128
"O=C(O)c1cccc2c1OB(O)[C@@H](NC(=O)C(NC(=O)N1CCN(CCF)C(=O)C1=O)c1c(F)cc(O)cc1F)C2 (mixture of isomers) [Example 119, (3R)-3-(2-(2,6-difluoro-4-hydroxyphenyl)-2-(4-(2-fluoroethyl)-2,3-dioxopiperazine-1-carboxamido)acetamido)-2-hydroxy-3,4-dihydro-2H-benzo[e][1,2]oxaborinine-8-carboxylic acid]",32 to 64,< 0.25,8 to 16,0.5 to 1,8 to 16,8 to 16,> 128,0.5 to 1,2 to 4,32 to 64,> 128,8 to 16
